Measured values reported in publication PMC10432207 (Heliyon, 2023).
In brackets after ≈: the same amount, converted by molar mass.

Target: Hyalomma scupense acetylcholinesterase (AChE)
Experiment: Ellman assay, absorbance at […] nm
Type: biochemical
Conditions: acetylthiocholine iodide, DTNB, 10 min, 37 °C

COc1ccc2c3c1O[C@H]1C[C@@H](O)C=C[C@@]31CCN(C)C2 [galantamine]
IC50 (positive control): 97 µg/mL (≈ 338 µM)

C=CCc1ccc(O)c(OC)c1 [eugenol]
IC50: 178 µg/mL (≈ 1080 µM)
